Earlier results, collected in patent US20070122442A1, “Triple-Action Pest Control Formulation and Method” (priority 2004, published 2007).

System: insects
Conditions: variety of insects

Structure (SMILES): OB(O)O [boric acid]
- retention at which boric acid is known to be effective: below 0.5%
